{
  "source": "patent US20230181560A1",
  "about": "“COMPOUND FOR PREVENTING OR TREATING A VIRAL INFECTION” (priority 2020, published 2023)",
  "key": {"caspases": {"tested_on": "caspases", "conditions": "cited from earlier work"}, "HIV": {"tested_on": "HIV", "conditions": "WO2009/092897; cited from earlier work"}, "SIV": {"tested_on": "SIV", "conditions": "cited from earlier work"}, "HIV-1 lai": {"tested_on": "HIV-1 lai", "experiment": "Intracellular P24 capsid protein staining by flow cytometry in HIV-1 infected CD4 T lymphocytes", "assay_type": "cell-based", "conditions": "20 µM added every two days, staining day 4, 5, 6 post-infection"}, "[1]": {"tested_on": "CD4 T lymphocytes infected with HIV-1 lai", "experiment": "Annexin V staining (cell mortality/apoptosis) of HIV-1 infected CD4 T lymphocytes", "assay_type": "cell-based", "conditions": "20 µM every two days; day 5 post-infection"}, "SARS-CoV-2 [2]": {"tested_on": "SARS-CoV-2", "experiment": "microbe, parasite or virus in culture", "assay_type": "cell-based"}, "SARS-CoV-2 [3]": {"tested_on": "SARS-CoV-2", "assay_type": "cell-based"}, "SARS-CoV-2 [4]": {"tested_on": "SARS-CoV-2", "assay_type": "cell-based", "remark": "listed apart in the source"}},
  "note": "Read-outs that look alike come from different tables or passages of the source.",
  "data": [
    {"compound": "CC(C)C(NC(=O)c1ccc2ccccc2n1)C(=O)NC(CC(=O)O)C(=O)COc1c(F)cccc1F", "note": "(stereo not shown) [Q-VD-OPh]", "values": [
      {"measurement": "caspase inhibitory activity", "setting": "caspases", "result": "broad caspase inhibitor"},
      {"measurement": "inhibition of viral replication in HIV-infected cells", "setting": "HIV", "result": "inhibition of viral replication"},
      {"measurement": "AIDS disease progression and control of viral replication", "setting": "SIV; SIV-infected rhesus macaques, five injections during primary infection", "result": "prevents AIDS disease progression"},
      {"measurement": "cancer development after treatment", "setting": "SIV; six monkeys, four or five years after treatment", "result": "none of the animals have developed a cancer"}
    ]},
    {"compound": "CC(C)C(NC(=O)c1ccc2ccccc2n1)C(=O)NC(CCC(=O)O)C(=O)COc1c(F)cccc1F", "note": "(stereo not shown) [Q-VE-OPh]", "values": [
      {"measurement": "antiviral effect on HIV-1 replication (intracellular P24 capsid protein)", "setting": "HIV-1 lai", "result": "same antiviral effect as the comparative Q-VD-OPh molecule"},
      {"measurement": "cell mortality (Annexin V surface staining)", "setting": "[1]", "result": "much less mortality than the infected cells"},
      {"measurement": "effect on the entry of the virus into the cell", "setting": "SARS-CoV-2 [2]", "result": "no significant effect"},
      {"measurement": "inhibition at 50 µM", "setting": "SARS-CoV-2 [2]; Severe acute respiratory syndrome coronavirus 2, Vero C1008, 72 h, read-out: inhibition of SARS-CoV-2 viral replication", "result": "~99", "unit": "%"},
      {"measurement": "inhibition at 25 µM", "setting": "SARS-CoV-2 [2]; Severe acute respiratory syndrome coronavirus 2, Vero C1008, 72 h, 25 µM, read-out: inhibition of SARS-CoV-2 viral replication", "result": "~70", "unit": "%"},
      {"measurement": "expression of the viral Spike and Nucleocapsid proteins within infected cells", "setting": "SARS-CoV-2 [3]", "result": "reduce significantly"},
      {"measurement": "relative expression of the Nucleocapsid (N) and NSP6 genes in supernatants of infected cells", "setting": "SARS-CoV-2 [4]", "result": "reduce significantly"},
      {"measurement": "toxicity on Vero E6 cells", "setting": "Vero E6 cells; 100 µM added for three days", "result": "without any toxicity"},
      {"measurement": "toxicity on Vero E6 cells", "setting": "Vero E6 cells; 25, 50, 100 µM, infected (MOI 0.05) or not, 72 h post-infection", "result": "no toxicity effect"},
      {"measurement": "caspase inhibitory activity", "setting": "caspases", "result": "does not show any caspase inhibitory activity"}
    ]},
    {"compound": "CCO[C@@H]1OC(=O)C[C@@H]1NC(=O)[C@@H]1CCCN1C(=O)[C@@H](NC(=O)c1ccc(N)c(Cl)c1)C(C)(C)C", "note": "[VX-765]", "values": [
      {"measurement": "antiviral effect on HIV-1 replication (intracellular P24 capsid protein)", "setting": "HIV-1 lai", "result": "no effect on the viral replication"}
    ]},
    {"compound": "COC(=O)C[C@H](NC(=O)[C@@H](NC(=O)c1ccc2ccccc2n1)C(C)C)C(=O)COc1c(F)cccc1F", "note": "[QVD-methylated]", "values": [
      {"measurement": "antiviral effect on HIV-1 replication (intracellular P24 capsid protein)", "setting": "HIV-1 lai", "result": "same antiviral effect"},
      {"measurement": "cell mortality (Annexin V surface staining)", "setting": "[1]", "result": "contrary"}
    ]},
    {"compound": "CC(C)[C@H](NC(=O)c1ccc2ccccc2n1)C(=O)N[C@@H](CC(=O)O)C(=O)COc1c(F)cccc1F", "note": "[QVD-Unmethylated]", "values": [
      {"measurement": "antiviral effect on HIV-1 replication (intracellular P24 capsid protein)", "setting": "HIV-1 lai", "result": "same antiviral effect"},
      {"measurement": "cell mortality (Annexin V surface staining)", "setting": "[1]", "result": "The results were the same"}
    ]}
  ]
}
